Data published in patent US10005731B2, “Modulators of the retinoid-related orphan receptor gamma (ROR-gamma) for use in the treatment of autoimmune and inflammatory diseases” (Glaxo Group Limited, priority 2012, dated 2018).
Where a name gives a salt, the structure may show the parent alone. Read-outs that look alike come from different tables or passages of the source.

What was measured:
[1] = target: T1, Human RORγ Ligand Binding Domain (RORγ-LBD) (Homo sapiens, UniProt P51449); experiment: Dual Fluorescence Energy Transfer (FRET) assay, RORγ-LBD / SRC1(2) co-activator peptide interaction; assay type: biochemical; conditions: mean of multiple test results if tested more than once; read-out: pIC50 in the dual FRET assay (converted)
T1 construct: made in house; host or cells: E. coli BL21(DE3), modified pET21a
T1 sequence (P51449 263-518): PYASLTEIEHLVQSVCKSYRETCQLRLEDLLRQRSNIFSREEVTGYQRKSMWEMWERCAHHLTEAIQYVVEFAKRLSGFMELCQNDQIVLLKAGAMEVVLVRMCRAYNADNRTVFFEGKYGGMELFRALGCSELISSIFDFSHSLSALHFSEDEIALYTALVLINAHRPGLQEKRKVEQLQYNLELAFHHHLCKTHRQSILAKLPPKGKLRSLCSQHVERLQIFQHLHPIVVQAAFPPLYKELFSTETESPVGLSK
Text: This assay is based on the knowledge that nuclear receptors interact with cofactors (transcription factors) in a ligand dependent manner. RORγ is a typical nuclear receptor in that it has an AF2 domain in the ligand binding domain (LBD) which interacts with co-activators.
The assay measures ligand-mediated interaction of the co-activator peptide with the purified bacterial-expressed RORγ ligand binding domain (RORγ-LBD) to indirectly assess ligand binding. RORγ has a basal level of interaction with the co-activator SRC1(2) in the absence of ligand, thus it is possible to find ligands that inhibit or enhance the RORγ/SRC1(2) interaction.
Human RORγ Ligand Binding Domain (RORγ-LBD) was expressed in E.coli strain BL21(DE3) as an amino-terminal polyhistidine tagged fusion protein. DNA encoding this recombinant protein was sub-cloned into a modified pET21a expression vector (Novagen).
Approximately 50 g E. coli cell pellet was resuspended in 300 mL of lysis buffer (30 mM imidazole pH 7.0 and 150 mM NaCl). Cells were lysed by sonication and cell debris was removed by centrifugation for 30 minutes at 20,000 g at 4° C. […] The clarified lysate was loaded onto a column (XK-26) packed with ProBond Nickel Chelating resin (Invitrogen), pre-equilibrated with 30 mM imidazole pH 7.0 and 150 mM NaCl. After washing to baseline absorbance with the equilibration buffer, the column was developed with a gradient from 30 to 500 mM imidazole pH 7.0. Column fractions containing the RORγ-LBD protein were pooled and concentrated to a volume of 5 mls. The concentrated protein was loaded onto a Superdex 200 column pre-equilibrated with 20 mM Tris-CI pH 7.2 and 200 mM NaCl. The fractions containing the desired RORγ-LBD protein were pooled together.
Purified RORγ-LBD was buffer exchanged by exhaustive dialysis [3 changes of at least 20 volumes (>8000x)] against PBS [100mM NaPhosphate, pH 8 and 150mM NaC1]. […] The modified protein was distributed into aliquots, frozen on dry ice and stored at −80° C. The biotinylated RORγ-LBD was subjected to mass spectrometric analysis to reveal the extent of modification by the biotinylation reagent.
An appropriate amount of Europium labeled Streptavidin was then added to the biotinylated SRC1(2) solution in a tube to give a final concentration of 10 nM. The tube was inverted gently and incubated for 15 minutes at room temperature. Twenty-fold excess biotin from the 10 mM stock solution was added and the tube was inverted gently and incubated for 10 minutes at room temperature.
Preparation of APC labeled RORγ-LBD: biotinylated RORγ-LBD solution was prepared by adding an appropriate amount of biotinylated RORγ-LBD from the stock solution to a buffer containing 10 mM of freshly added DTT from solid to give a final concentration of 40 nM. An appropriate amount of APC labeled Streptavidin was then added to the biotinylated RORγ-LBD solution in a tube to give a final concentration of 20 nM. The tube was inverted gently and incubated for 15 minutes at room temperature. Twenty-fold excess biotin from the 10 mM stock solution was then added and the tube was inverted gently and incubated for 10 minutes at room temperature.
The reaction mixtures were incubated for 5 minutes. […] The plates were incubated for lhr and then read on ViewLux in Lance mode for EU/APC.

[2] = tested on: Mouse CD4+ cells; experiment: Th17 cell differentiation assay (IL-17 ELISA); assay type: cell-based
Description: Mouse CD4+cells were purified using the CD4+ T Cell Isolation II Kit according to manufacturer's instructions (Miltenyi Biotec). 96 well plates were pre-coated with anti-mCD3 antibody. Un-coated wells were used as controls. CD4+ Cells were resuspended in RPMI 1640 complete medium and were added to the 96-well plates. Cytokine cocktail and the compound were then added to the wells. Antibodies and cytokines (all from R&D Systems) used in the assay were selected from the following: anti-mCD3; anti-mCD28; anti-mIFNγ; anti-mIL4; mIL-6; mIL-23; mIL-1β; hTGF-β1. The culture was incubated at 37° C. for 3 days and supernatants were collected for ELISA. The IL-17 ELISAs were performed according to manufacturer's instructions (R&D Systems). The results were analyzed using Prism software with non-linear regression to determine pIC50.

[3] = 72 h, mean pIC50, IL-17 ELISA, 3 days culture, detection limit of the assay 5, read-out: pIC50 in the Th17 cell differentiation assay (converted)

Compound	IC50 [1] [nM]	IC50 [2, 3] [nM]	IC50 ([2]; table with percutaneous study, read-out: Th17 cell differentiation assay IC50) [ng/mL]	IC50 ([2]; table with percutaneous study, read-out: Th17 cell differentiation assay pIC50 (converted)) [nM]
Cc1c(CN2CCN(C(=O)C3CCCC3)[C@@H](C)C2)cc(F)cc1NC(=O)c1cccc(C#N)c1 [Example 66, (S)-3-cyano-N-(3-((4-(cyclopentanecarbonyl)-3-methylpiperazin-1-yl)methyl)-5-fluoro-2-methylphenyl)benzamide]	~39.8	~0.794	0.4	0.794
Cc1c(CN2CCN(C(=O)C3CCCC3)[C@@H](C)C2)cc(Cl)cc1NC(=O)c1cccc(C#N)c1 [Example 193, (S)-N-(5-chloro-3-((4-(cyclopentanecarbonyl)-3-methylpiperazin-1-yl)methyl)-2-methylphenyl)-3-cyanobenzamide, trifluoroacetic acid salt]	~63.1	~5.01		
